A short description of data set [1]: Brain and plasma compound concentration in mouse after oral dose. The data set is classed as in vivo. As to conditions: 30 mg/kg, 30 mpk po. How it is done: (§1) A typical protocol for measuring Aβ42 lowering in vivo is shown but it is only one of many variations that could be used to optimize the levels of detectable Aβ. For example, Aβ42 lowering compounds as free acids or sodium salts were formulated in 5% of solutol in water or 20% hydroxypropyl β cyclodextrin. The Aβ42 lowering agents are administered as a single oral dose or by any acceptable route of administration e.g., three to four hours before sacrifice, determined empirically, and analysis or alternatively could be given over a course of days and the animals sacrificed three to four hours after the final dose is given.
(§2) The mice are anaesthetized with a mixture of Ketalar (Ketamin), Rompun (Xylazin 2%) and Atropin (2:1:1) and flushed trans-cardially with physiological serum at 4° C. Blood is collected at sacrifice. The blood collection is performed via a heart puncture during anesthesia in EDTA treated collection tubes. Blood is centrifuged at 4000 g for 5 minutes at 4° C. and the plasma recovered and flash frozen for later analysis. The brain is removed from the cranium and hindbrain and forebrain are separated with a cut in the coronal/frontal plane. The cerebellum is removed and retained for quantitative analysis of test compound levels. The forebrain is divided evenly into left and right hemisphere by using a midline sagital cut.
Oral dose 30 mg/kg at 4 hr Time Point

Data set [2] concerns Aβ42. In words: In vivo mouse Aβ42 lowering (brain Aβ42 ELISA). The settings on record: oral dose 30 mg/kg, 4 hr time point.
Excerpt: To determine whether acute administration of an Aβ42 lowering agent would reduce Aβ42 levels in vivo, non-transgenic rodents, e.g. mice or rats were used. Alternatively, two to three month old Tg2576 mice expressing APP695 containing the “Swedish” variant can be used or a transgenic mouse model developed by Dr. Fred Van Leuven (K. U. Leuven, Belgium) and co-workers, with neuron-specific expression of a clinical mutant of the human amyloid precursor protein [V717I] (Moechars et al., 1999 J. Biol. Chem. 274, 6483). Young transgenic mice have high levels of Aβ in the brain but no detectable Aβ deposition. At approximately 6-8 months of age , the transgenic mice start to display spontaneous, progressive accumulation of β-amyloid (Aβ) in the brain, eventually resulting in amyloid plaques within the subiculum, hippocampus and cortex. Animals treated with the Aβ42 lowering agent will be examined and compared to those untreated or treated with vehicle and brain levels of soluble Aβ42 and total Aβ would be quantitated by standard techniques, for example, using ELISA. Treatment periods may vary from hours to days and will be adjusted based on the results of the Aβ42 lowering once a time course of onset of effect can be established.
as §1, §2
Both hemispheres are immediately immersed in liquid nitrogen and stored at −70° C. until homogenization for biochemical assays. […]
In general terms: An ELISA detects its analyte on a solid surface through an enzyme-linked reagent.

Data set [3] concerns the target T1, γ-secretase (Homo sapiens, UniProt P49768).
T1 construct: endogenous in cells; host or cells: SKNBE2 cells carrying APP 695 wild type
Nature of the data set: WTAPP cell assay Aβ42 (γ-secretase-modulating activity, SKNBE2 cells carrying APP 695 wild type). The settings on record: for EC50: SKNBE2 cells carrying APP 695 wild type. It counts as cell-based. How it is done: Screening of the Compounds of the Invention for γ-Secretase-Modulating Activity
Screening was carried out using SKNBE2 cells carrying the APP 695-wild type, grown in DMEM/NUT-mix F12 (HAM) provided by Gibco (cat no. 31330-38) containing 5% Serum/Fe supplemented with 1% non-essential amino acids.
Cells were grown to near confluency.
The screening was performed using the assay as described in Citron et al (1997) Nature Medicine 3: 67.

Data set [4] has as its target T2, Cyclooxygenase-2 (Cox-2) (Ovis aries, UniProt P79208).
T2 construct: purchased Cayman Chemical Company 760111
T2 sequence (P79208 17-603): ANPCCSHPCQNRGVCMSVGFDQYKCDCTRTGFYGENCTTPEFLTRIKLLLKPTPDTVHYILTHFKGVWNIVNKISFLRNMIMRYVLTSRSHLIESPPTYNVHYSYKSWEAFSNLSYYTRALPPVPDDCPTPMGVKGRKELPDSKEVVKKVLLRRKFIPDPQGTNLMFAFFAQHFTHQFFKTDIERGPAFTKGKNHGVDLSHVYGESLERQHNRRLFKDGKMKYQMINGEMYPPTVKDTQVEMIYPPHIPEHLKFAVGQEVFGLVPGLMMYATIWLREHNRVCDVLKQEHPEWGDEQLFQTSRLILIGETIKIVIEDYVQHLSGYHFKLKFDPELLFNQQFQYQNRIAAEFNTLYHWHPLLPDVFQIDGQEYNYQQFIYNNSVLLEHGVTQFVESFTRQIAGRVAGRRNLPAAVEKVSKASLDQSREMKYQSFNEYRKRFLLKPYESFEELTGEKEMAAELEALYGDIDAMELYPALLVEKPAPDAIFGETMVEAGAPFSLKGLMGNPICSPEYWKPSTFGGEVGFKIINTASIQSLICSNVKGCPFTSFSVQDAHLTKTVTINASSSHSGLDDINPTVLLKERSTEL
Nature of the data set: Colorimetric Cox inhibitor screening assay (Cayman), Cox-2. It counts as biochemical. On the procedure: (§3) Determination of the Effect of the Compounds According to the Invention on Cyclooxygenase-1 and Cyclooxygenase-2 (Cox-1, Cox-2)
(§4) Inhibition of Cox-1 and Cox-2 was determined using the Colorimetric Cox inhibitor screening assay provided by Cayman Chemical Company, Ann Arbor, Mich., USA. (Cat. No. 760111) according to manufacturer's instructions.

Data set [5] addresses T3, Cyclooxygenase-1 (Cox-1) (Ovis aries, UniProt P05979).
T3 construct: purchased Cayman Chemical Company 760111
T3 sequence (P05979 25-600): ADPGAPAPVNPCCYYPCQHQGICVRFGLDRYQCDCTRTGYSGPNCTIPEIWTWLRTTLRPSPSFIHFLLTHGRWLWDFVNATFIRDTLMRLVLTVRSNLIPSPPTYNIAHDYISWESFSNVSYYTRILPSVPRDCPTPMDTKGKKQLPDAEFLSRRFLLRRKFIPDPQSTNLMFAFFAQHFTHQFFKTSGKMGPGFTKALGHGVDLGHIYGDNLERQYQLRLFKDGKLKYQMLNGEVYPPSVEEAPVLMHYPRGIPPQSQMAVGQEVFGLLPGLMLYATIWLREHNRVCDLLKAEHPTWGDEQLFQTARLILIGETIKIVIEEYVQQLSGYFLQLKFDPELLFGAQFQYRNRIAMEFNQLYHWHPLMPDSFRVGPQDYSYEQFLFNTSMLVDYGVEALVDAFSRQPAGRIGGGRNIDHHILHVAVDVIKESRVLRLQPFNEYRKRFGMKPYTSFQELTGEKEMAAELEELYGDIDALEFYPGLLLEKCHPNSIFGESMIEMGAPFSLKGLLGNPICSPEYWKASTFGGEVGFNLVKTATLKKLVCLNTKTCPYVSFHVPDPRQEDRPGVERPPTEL
In words: Colorimetric Cox inhibitor screening assay (Cayman), Cox-1. It counts as biochemical. How it is done:
as §3, §4

Where [6] appears, read: brain, read-out: Brain concentration @ 30 mpk po (4 hr).
Where [7] appears, read: plasma, read-out: Plasma concentration @ 30 mpk po (4 hr).

Molecules are shown by their SMILES. Read-outs that look alike come from different tables or passages of the source.

Regarding `CC(C)C[C@@H](C(=O)O)c1cc(OCc2cc(F)cc(F)c2)cc(-c2ccc(C(F)(F)F)cc2)c1` [Compound 1, (R) 2-[5-(3,5-Difluoro-benzyloxy)-4′-trifluoromethyl-biphenyl-3-yl]-4-methyl-pentanoic acid], the concentration at 4 h in data set [1] (setting [6]) came out at 6.9 ± 2.3 µM; in data set [1] (setting [7]) it was 6.9 ± 12.2 µM. In data set [2], the “In vivo mouse Aβ42 efficacy @ 30 mpk (4 hr) inhibition” value was found to be 50%. Moreover, the EC50 (commonly the midpoint of the concentration-response curve) in data set [3] amounted to 525 nM. Besides, the inhibition at 100 µM in data set [4] and in data set [5] was under 50% each time.

In the case of `CC(C)C[C@H](C(=O)O)c1cc(OCc2cc(F)cc(F)c2)cc(-c2ccc(C(F)(F)F)cc2)c1` [Compound 2, (S)-2-[5-(3,5-Difluoro-benzyloxy)-4′-trifluoromethyl-biphenyl-3-yl]-4-methyl-pentanoic acid], the concentration at 4 h in data set [1] (setting [6]) came out at 11.1 ± 2.8 µM; in data set [1] (setting [7]), 11.1 ± 8.9 µM. Further, the “In vivo mouse Aβ42 efficacy @ 30 mpk (4 hr) inhibition” value in data set [2] amounted to 45%. Further, the concentration for a half-maximal effect (EC50) in data set [3] was 1120 nM.

`CC(C)C[C@@H](C(=O)O)c1cc(OCc2ccc(F)cc2C(F)(F)F)cc(-c2ccc(C(F)(F)F)cc2)c1` [Compound 3, (R)-2-[5-(4-fluoro-2-trifluoromethyl-benzyloxy)-4′-trifluoromethyl-biphenyl-3-yl]-4-methyl-pentanoic acid]: the concentration at 4 h stood at 5.1 ± 1.1 µM in data set [1] (setting [6]) and 5.1 ± 2.8 µM in data set [1] (setting [7]). Further, the “In vivo mouse Aβ42 efficacy @ 30 mpk (4 hr) inhibition” value in data set [2] stood at 25%. Further, it took 316 nM to reach a half-maximal effect in data set [3] (EC50).

With `CC(C)CC(C(=O)O)c1cc(OCc2cc(F)cc(F)c2)cc(-c2ccc(Cl)c(C(F)(F)F)c2)c1` (stereo not shown) [Compound 4, 2-[4′-Chloro-5-(3,5-difluoro-2-benzyloxy)-3′-trifluoromethyl-biphenyl-3-yl]-4-methyl-pentanoic acid], the concentration at 4 h was 6.5 ± 1.5 µM in data set [1] (setting [6]) and 6.5 ± 6.3 µM in data set [1] (setting [7]). The “In vivo mouse Aβ42 efficacy @ 30 mpk (4 hr) inhibition” value in data set [2] was found to be 42%. In addition, the half-maximal effective concentration (EC50) in data set [3] was found to be 190 nM.

For `CCC[C@H](C(=O)O)c1cc(OCc2ccccc2)cc(-c2ccc(C(F)(F)F)cc2)c1` [reference compound], the IC50 (in general, the concentration needed to halve the response being measured) in data set [3] (comparison compound, read-out: IC50 in the above WTAPP cell assay) was determined as 2500 nM.
